Read-outs that look alike come from different tables or passages of the source. Marks after values point to notes of the source that are not given here.
Columns and labels:
ATM = ATM (Homo sapiens (Human), UniProt Q13315); assay: Caliper mobility shift assay for ATM; format: biochemical; details: read-out: IC50 of inhibitory activity on ATM kinase
Procedure: 1.2 Determination of the Inhibitory Activities of Compounds on ATM: Caliper Mobility Shift Assay for ATM
To a 96-well plate, 98 μL of DMSO and 2 μL of the 10 mM stock solution were added and mixed evenly so that the concentration of the solution was 200 μM.
Based on the inhibitory rates of the compound at different concentrations, IC50 was calculated according to the formula: Y=Bottom+(Top−Bottom)/(1+(IC50/X)^HillSlope).

[1] = test system: Human glioblastoma cell line LN-18; assay: LN18 cell proliferation combined with radiotherapy (CTG assay); format: cell-based; details: for IC50: LN18 cells, 1 Gy irradiation 1 h after compound, 6 days, CTG; for inhibitory effect on LN18 cell proliferation, in words: combined with radiotherapy, compared with AZD1390 as positive control;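 for IC50: readout is CTG luminescence proliferation not KAP1 phosphorylation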
Procedure: 5 Test of the Inhibitory Activities of the Compounds of the Present Disclosure Combined with Radiotherapy on LN18 Cell Proliferation
• Cell: Human glioblastoma cell line LN-18
5.2 Experimental Procedures
• (1) Cell inoculation • 1) The cell culture fluid was preheated at 37° C. • 2) A complete culture medium of LN18 cells was prepared, at a ratio of DMEM medium:FBS=95:5 (V/V). • 3) Cells were digested with trypsin, collected to serve as a cell suspension, and counted, the cell suspension was then added into a 96-well plate at 1500 cells/well and 100 μL of cell fluid/well, and three parallel wells were set. • 4) After inoculated in the plate, the cells were cultured overnight under the condition of 37° C. and 5% CO2. • (2) Compound addition and incubation • 1) AZD1390 and tested compounds, respectively, were sequentially diluted 5 times with DMSO, starting from the concentration of 10 mM and yielding the concentrations of 10, 2, 0.4, 0.08, 0.016, 0.0032, 0.00064, 0.000128, and 0.0000256 mM in turn. The compound solutions at the above concentrations were diluted 5000 times with the complete culture medium. The final 2× concentrations were in order 2000, 400, 80, 16, 3.2, 0.64, 0.128, 0.0256, and 0.00512 nM. The vehicle control was 0.02% DMSO culture fluid. • 2) A complete culture medium containing 100 μL of the compound solution was added to each well, and the final concentrations of the compounds in the wells were in order 1000, 200, 40, 8, 1.6, 0.32, 0.064, 0.0128, and 0.00256 nM. The 0.01% DMSO culture fluid was contained in the vehicle control well. After incubated with compound for 1 h, the cells were irradiated at a dose of 1 Gy. • 3) After irradiation, the plate was put into an incubator and incubated under the condition of 37° C. and 5% CO2 for 6 days. Then detection was performed by adopting CTG assay (100 μL of liquid from each well was sucked out and discarded, and 50 μL of CTG reagent was added to each well, and incubated at room temperature for 30 min, and the luminescence intensity was detected). • (3) Data analysis • 1) The Luminescence signal (RLU) of each well was detected. • 2) Proliferation inhibitory activity was calculated according to the formula: % inhibitory activity=RLUtreatment/RLUAvg(Vehicle)*100. 5.3 the Inhibitory Activities of Compounds of the Present Disclosure Combined with Radiotherapy on LN18 Cell Proliferation

ATM-phosphorylated KAP1 = assay: Intracellular ATM-phosphorylated KAP1 level, ICW assay in MCF7 cells; format: cell-based, Human; details: for IC50: MCF7 cells, 2 h compound, 10 Gy irradiation, further 1 h, read-out: pKAP1 IC50; for inhibitory effect on ATM KAP phosphorylation, in words: cellular level, compared with AZD1390 as positive control
Procedure: 4 Inhibition on Intracellular ATM-Phosphorylated KAP1 Level by the Compounds of the Present Disclosure: ICW Assay
• Cell: Human breast cancer cell line MCF7 • Materials and reagents:
4.2 Experimental Procedures
• (1) Cell inoculation • MCF7 cells were inoculated on a 384-well plate, 10000 cells/well (25 μL/well), and cultured overnight at 37° C. with 5% CO2. • (2) Activity detection • 1) The compound was formulated into a 100 mM solution with DMSO and then sequentially diluted with a gradient of 1:3 to yield a total of 10 concentration gradients, wherein the maximum concentration was 100 μM. • 2) 25 nL of each of the compound solutions with gradient concentrations prepared in step 1) was added to each well of the cell plate (Corning #356663) by using I-DOT One, resulting in a final concentration of 100 nM (maximum dose). • 3) The cell plate containing compound was incubated at 37° C. with 5% CO2 for 2 h. After 2 h, the cell plate was irradiated with a dose of 10 Gy, and then further incubated for 1 h. • 4) 25 μL of 8% paraformaldehyde was added to each well, followed by incubating at room temperature for 20 min. • 5) The 8% paraformaldehyde was discarded, followed by adding 0.1% TrintonX-100 and incubating at room temperature for 30 min. • 6) Odessey blocking buffer was added at 50 μL/well, followed by incubating at room temperature for 1.5 h. • 7) The Odessey blocking buffer was discarded, and then a primary antibody (Phospho-KAP1, 1:2000 dilution) was added, followed by incubating overnight at 4° C. • 8) The primary antibody was removed, followed by washing with PBS+0.1% Tween 20 for 5 times. • 9) DNA dye DRAQ5 coated with a second antibody (IRDye 800CW Goat anti-Rabbit, 1:4000 dilution) was added, followed by incubating at room temperature for 1 h. • 10) The second antibody was removed, followed by washing with PBS+0.1% Tween 20 for 5 times. • 11) PBS+0.1% Tween 20 was sucked off with Odyssey. • (3) Data analysis • 1) the relative ratio of Channel 800/Channel 700 for each well was detected. • 2) % of KAP1 phosphorylation was calculated according to the following formula:
% of KAP1 phosphorylation=[(Ratiocmpd−(Ratio)Positive)/((Ratio)Vehicle−(Ratio)Positive]*100 • (Ratio)Positive: the mean value of the test values of each positive control well in the test cell plate; • (Ratio)Vehicle: the mean value of the test values of each negative control well in the test cell plate. • 3) the IC50 of each compound was calculated and the dose-effect curve was plotted: % of KAP1 phosphorylation and log of compound's concentration were fit by using Graphpad 8.0 so as to calculate the IC50.
[formula] • X: log of compound's concentration • Y: % of KAP1 phosphorylation

[2] = test system: subcutaneous xenograft tumor of human glioblastoma LN-18; assay: LN-18 subcutaneous xenograft, combined with radiotherapy; format: in vivo, NOG mice; details: compound 5 mg/kg intragastric qd × 5 + IR 1 Gy, day 17
Procedure: 9 Efficacy Test of the Compounds of the Present Disclosure Combined with Radiotherapy on Inhibiting the Growth of Subcutaneous Xenograft Tumor of Human Glioblastoma LN-18
9.1 Experimental Animals: NOG Mice, SPF, Female, 18 to 22 g.
LN-18 tumor cells, DMEM medium:fetal bovine serum=95%:5%, accompanied by adding 100 U/mL penicillin and 100 μg/mL streptomycin, 37° C., 5% CO2.
LN18 tumor cells resuspended in serum-free DMEM medium were inoculated subcutaneously in the right costal region of experimental animals at 1.5*10^7/0.15 mL, and the animals were grouped when the tumor grew to 100 to 150 mm^3. Radiotherapy was performed 1 h after administration of compounds.
Tumor volume: The tumor volume was measured twice a week with a vernier caliper, and the long diameter and short diameter of tumor were measured. The tumor volume was calculated as follows: tumor volume (TV)=0.5×long diameter×short diameter^2. Tumor growth inhibitory rate (TGI %) was calculated according to the tumor volume. TVXn represents the mean tumor volume on day n of the treatment group, TVX0 represents the mean tumor volume on day 0 of the treatment group, TVMn represents the mean tumor volume on day n of the control group, and TVM0 represents the mean tumor volume on day 0 of the control group.

[3] = Homo sapiens, LN-18, light or radiation study
[4] = Homo sapiens, light or radiation study

Sequence of ATM (Q13315 whole entry): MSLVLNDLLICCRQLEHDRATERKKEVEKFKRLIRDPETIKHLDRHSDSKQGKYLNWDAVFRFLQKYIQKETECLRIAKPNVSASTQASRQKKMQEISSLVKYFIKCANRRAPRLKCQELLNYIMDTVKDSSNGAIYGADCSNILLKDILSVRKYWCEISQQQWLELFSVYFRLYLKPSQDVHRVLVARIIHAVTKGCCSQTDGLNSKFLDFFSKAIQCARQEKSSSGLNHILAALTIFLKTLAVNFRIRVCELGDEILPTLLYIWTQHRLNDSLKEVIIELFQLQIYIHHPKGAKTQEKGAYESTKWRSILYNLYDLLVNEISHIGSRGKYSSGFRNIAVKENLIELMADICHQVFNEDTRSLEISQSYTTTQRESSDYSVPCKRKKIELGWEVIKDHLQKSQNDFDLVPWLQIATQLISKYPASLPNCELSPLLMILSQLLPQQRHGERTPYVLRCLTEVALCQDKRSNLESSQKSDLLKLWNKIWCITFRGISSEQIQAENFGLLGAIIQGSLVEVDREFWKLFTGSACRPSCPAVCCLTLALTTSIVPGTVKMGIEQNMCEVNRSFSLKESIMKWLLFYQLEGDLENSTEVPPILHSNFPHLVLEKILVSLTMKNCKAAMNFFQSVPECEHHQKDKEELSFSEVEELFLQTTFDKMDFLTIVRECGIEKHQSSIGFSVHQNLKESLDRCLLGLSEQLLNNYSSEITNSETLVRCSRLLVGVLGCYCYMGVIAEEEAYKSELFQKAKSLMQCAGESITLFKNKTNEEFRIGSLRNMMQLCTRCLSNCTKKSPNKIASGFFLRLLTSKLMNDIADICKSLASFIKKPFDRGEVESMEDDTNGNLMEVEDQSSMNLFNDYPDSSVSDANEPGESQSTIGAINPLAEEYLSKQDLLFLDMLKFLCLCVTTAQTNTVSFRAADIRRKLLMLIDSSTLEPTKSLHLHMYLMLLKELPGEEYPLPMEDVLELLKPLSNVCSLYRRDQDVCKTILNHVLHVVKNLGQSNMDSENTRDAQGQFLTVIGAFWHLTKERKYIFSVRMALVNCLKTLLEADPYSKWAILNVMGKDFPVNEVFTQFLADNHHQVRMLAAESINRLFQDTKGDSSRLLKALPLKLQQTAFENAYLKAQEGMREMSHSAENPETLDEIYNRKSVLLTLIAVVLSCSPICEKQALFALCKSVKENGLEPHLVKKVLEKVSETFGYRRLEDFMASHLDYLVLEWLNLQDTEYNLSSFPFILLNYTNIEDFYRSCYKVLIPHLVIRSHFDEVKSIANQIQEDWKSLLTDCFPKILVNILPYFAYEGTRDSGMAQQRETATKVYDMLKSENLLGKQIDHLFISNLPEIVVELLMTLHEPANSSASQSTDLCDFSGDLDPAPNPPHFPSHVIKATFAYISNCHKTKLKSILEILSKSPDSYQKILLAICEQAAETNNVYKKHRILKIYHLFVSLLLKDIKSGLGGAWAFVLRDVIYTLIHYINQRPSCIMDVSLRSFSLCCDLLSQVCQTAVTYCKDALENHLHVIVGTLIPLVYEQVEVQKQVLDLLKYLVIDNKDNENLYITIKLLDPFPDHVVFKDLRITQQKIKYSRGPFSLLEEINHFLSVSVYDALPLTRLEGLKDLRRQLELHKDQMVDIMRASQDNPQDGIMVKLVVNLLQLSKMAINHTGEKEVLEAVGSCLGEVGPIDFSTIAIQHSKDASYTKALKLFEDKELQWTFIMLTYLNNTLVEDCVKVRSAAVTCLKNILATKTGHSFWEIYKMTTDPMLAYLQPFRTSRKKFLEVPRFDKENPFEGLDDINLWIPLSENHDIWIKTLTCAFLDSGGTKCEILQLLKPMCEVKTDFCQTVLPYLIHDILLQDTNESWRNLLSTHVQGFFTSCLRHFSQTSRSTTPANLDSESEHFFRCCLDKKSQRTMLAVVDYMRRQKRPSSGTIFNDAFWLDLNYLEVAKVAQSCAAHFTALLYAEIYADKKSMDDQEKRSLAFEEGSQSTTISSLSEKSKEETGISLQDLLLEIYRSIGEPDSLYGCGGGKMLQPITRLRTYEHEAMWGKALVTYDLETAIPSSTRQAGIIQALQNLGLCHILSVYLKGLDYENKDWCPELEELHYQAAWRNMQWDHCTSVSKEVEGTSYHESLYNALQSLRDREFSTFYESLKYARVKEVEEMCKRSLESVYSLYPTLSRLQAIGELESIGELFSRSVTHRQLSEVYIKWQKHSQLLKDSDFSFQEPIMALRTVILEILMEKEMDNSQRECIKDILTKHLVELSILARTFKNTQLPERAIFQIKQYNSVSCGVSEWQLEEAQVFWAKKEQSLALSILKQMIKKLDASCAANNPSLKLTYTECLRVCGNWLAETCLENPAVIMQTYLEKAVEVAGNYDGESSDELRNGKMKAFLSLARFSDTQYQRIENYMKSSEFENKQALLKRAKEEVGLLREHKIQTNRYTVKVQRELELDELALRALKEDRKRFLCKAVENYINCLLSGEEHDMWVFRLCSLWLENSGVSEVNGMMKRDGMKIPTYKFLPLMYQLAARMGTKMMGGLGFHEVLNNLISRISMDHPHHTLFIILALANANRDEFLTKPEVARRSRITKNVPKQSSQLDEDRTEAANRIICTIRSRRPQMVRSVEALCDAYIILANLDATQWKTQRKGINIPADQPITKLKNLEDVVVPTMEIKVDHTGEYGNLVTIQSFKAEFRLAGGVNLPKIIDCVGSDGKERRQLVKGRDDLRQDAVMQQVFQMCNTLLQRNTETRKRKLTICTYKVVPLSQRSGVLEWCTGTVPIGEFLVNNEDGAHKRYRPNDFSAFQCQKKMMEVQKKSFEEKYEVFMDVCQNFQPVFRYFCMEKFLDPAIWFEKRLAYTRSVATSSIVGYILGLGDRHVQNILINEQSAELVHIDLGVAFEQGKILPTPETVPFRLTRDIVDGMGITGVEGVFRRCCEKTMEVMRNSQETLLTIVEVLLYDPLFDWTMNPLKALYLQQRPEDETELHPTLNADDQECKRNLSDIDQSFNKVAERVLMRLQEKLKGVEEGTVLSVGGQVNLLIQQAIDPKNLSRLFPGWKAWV

| Compound | IC50 (ATM) [nM] | IC50 [1, 3] [nM] | IC50 (ATM-phosphorylated KAP1; [4]) [nM] | IC50 [1] [nM] | IC50 (ATM-phosphorylated KAP1) [nM] | D 17 TGI [2] [%] | D 17 TV (MEAN ± SD) [2] | inhibitory effect on LN18 cell proliferation, in words [1] | inhibitory effect on ATM KAP phosphorylation, in words (ATM-phosphorylated KAP1) |
| --- | --- | --- | --- | --- | --- | --- | --- | --- | --- |
| Cn1c(=O)n2c3c4c(c(-c5ccc(OCCCN6CCCCC6)nc5)ccc4ncc31)OCC21CC1 [Example A-68, 2-methyl-7-(6-(3-(piperidin-1-yl)propoxy)pyridin-3-yl)-2,9-dihydro-1H-spiro[8-oxa-2,4,10a-triazanaphtho[2,1,8-cde]azulene-10,1′-cyclopropan]-1-one] | 0.37 | 6.83 | 0.9 | – | – | 83.9 | 285 ± 61***^# mm^3 | – | – |
| C[C@H]1COc2c(-c3ccc(OCCCN4CCCCC4)nc3)ccc3ncc4c(c23)n1c(=O)n4C [Example A-177, (S)-2,10-dimethyl-7-(6-(3-(piperidin-1-yl)propoxy)pyridin-3-yl)-9,10-dihydro-8-oxa-2,4,10a-triazanaphtho[2,1,8-cde]azulen-1(2H)-one] | 0.25 | 5.22 | 0.61 | – | – | 77.9 | 338 ± 67***^ mm^3 | – | – |
| C[C@H]1COc2c(-c3ccc(OCCCN4CCC5(CC4)CC5)nc3)ccc3ncc4c(c23)n1c(=O)n4C [Example A-183, (S)-7-(6-(3-(6-azaspiro[2.5]octan-6-yl)propoxy)pyridin-3-yl)-2,10-dimethyl-9,10-dihydro-8-oxa-2,4,10a-triazanaphtho[2,1,8-cde]azulen-1(2H)-one] | 0.23 | 1.39 | 0.22 | – | – | 85.7 | 269 ± 89***^# mm^3 | higher than that of AZD1390 | higher than that of AZD1390 |
| C[C@H]1COc2c(-c3ccc(OCCCN4CCC5(CC4)COC5)nc3)ccc3ncc4c(c23)n1c(=O)n4C [Example A-184, (S)-7-(6-(3-(2-oxa-7-azaspiro[3.5]nonan-7-yl)propoxy)pyridin-3-yl)-2,10-dimethyl-9,10-dihydro-8-oxa-2,4,10a-triazanaphtho[2,1,8-cde]azulen-1(2H)-one] | 0.25 | 3.84 | 0.33 | – | – | – | – | – | higher than that of AZD1390 |
| CC[C@H]1CNc2c(-c3ccc(OCCCN4CCCCC4)nc3)ccc3ncc4c(c23)n1c(=O)n4C [Example A-203, (S)-10-ethyl-2-methyl-7-(6-(3-(piperidin-1-yl)propoxy)pyridin-3-yl)-2,8,9,10-tetrahydro-1H-2,4,8,10a-tetraazanaphtho[2,1,8-cde]azulen-1(2H)-one] | 0.54 | – | – | 5.66 | 0.83 | 71.4 | 396 ± 121*** mm^3 | – | – |

Second part, led by results:

| IC50 (ATM) [nM] | IC50 [1, 3] [nM] | IC50 (ATM-phosphorylated KAP1; [4]) [nM] | IC50 [1] [nM] | IC50 (ATM-phosphorylated KAP1) [nM] | Compound | D 17 TGI [2] [%] | D 17 TV (MEAN ± SD) [2] | inhibitory effect on LN18 cell proliferation, in words [1] | inhibitory effect on ATM KAP phosphorylation, in words (ATM-phosphorylated KAP1) |
| --- | --- | --- | --- | --- | --- | --- | --- | --- | --- |
| 0.44 | – | – | 5.93 | 0.64 | C[C@H]1CNc2c(-c3ccc(OCCCN4CCCCC4)nc3)ccc3ncc4c(c23)n1c(=O)n4C [Example A-198, (S)-2,10-dimethyl-7-(6-(3-(piperidin-1-yl)propoxy)pyridin-3-yl)-2,8,9,10-tetrahydro-1H-2,4,8,10a-tetraazanaphtho[2,1,8-cde]azulen-1(2H)-one] | 79.3 | 326 ± 77***^# mm^3 | – | – |
| 0.33 | – | – | 2.71 | 0.33 | CC1CCN(CCCOc2ccc(-c3ccc4ncc5c6c4c3NC[C@H](C)n6c(=O)n5C)cn2)CC1 [Example A-211, (S)-2,10-dimethyl-7-(6-(3-(4-methylpiperidin-1-yl)propoxy)pyridin-3-yl)-2,8,9,10-tetrahydro-1H-2,4,8,10a-tetraazanaphtho[2,1,8-cde]azulen-1(2H)-one] | – | – | higher than that of AZD1390 | higher than that of AZD1390 |
| 0.37 | – | – | 1.48 | 0.37 | C[C@H]1CNc2c(-c3ccc(OCCCN4CCC(C)(C)CC4)nc3)ccc3ncc4c(c23)n1c(=O)n4C [Example A-212, (S)-7-(6-(3-(4,4-dimethylpiperidin-1-yl)propoxy)pyridin-3-yl)-2,10-dimethyl-2,8,9,10-tetrahydro-1H-2,4,8,10a-tetraazanaphtho[2,1,8-cde]azulen-1(2H)-one] | – | – | higher than that of AZD1390 | higher than that of AZD1390 |

— patent US20240294545A1 (CSPC Zhongqi Pharmaceutical Technology (Shijiazhuang) Co., …, priority 2020, published 2024)
